In patent US20070141171A1, “NOVEL COMPOSITION AND METHOD FOR THE TREATMENT OF HYPERTENSION” (priority 2003, published 2007):

Tests used:
Format in all cases: cell-based
[1] = system: cultured human aortic smooth muscle cells (SMC); assay: SMC collagen gel contraction stimulated by angiotensin II; details: for rank of effectiveness on ATII-induced gel contraction (catechins) / rank of effectiveness on ATII (polyphenols): at 30; for GA, % vs 100% control / increase in gel area (GA) vs ATII: 30 mcM; for GA, % vs 100% control: ATII alone 76%; for activity as inhibitor of Ang II-stimulated gel contraction: summary statement; for effect on ATII-induced gel: 1-4 mM, individual or comb
Method: Plant-derived bioflavonoids have been recognized to support arterial wall structural integrity and interfere with a variety of pro-atherosclerotic stimuli. We tested whether bioflavonoids have an effect on the contractile activity of cultured human aortic smooth muscle cells (SMC) embedded in a three-dimensional type I collagen (1 mg/mL) matrix. […]
The following starting material and equipment were used. • 1. Cultured vascular smooth muscle cells (SMC) isolated from human aorta.
Cells are used from 4th to 8th passages. • 2. Human collagen type I. • 3. Angiotensin II. • 4. Epican Forte (composition shown in Table 1, available from Matthias Rath, Inc., and all ingredients commercially available) • 5. Epigallocatechin gallate (EGCG) • 6. Quercetin (chemical structure is well defined) • 7. Cell culture medium (DMEM) • 8. 24 well plastic cell culture plate pre-incubated with 2 mg/ml bovine serum albumin. • 9. Digital camera • 10. Digital image analyzing software (Scion Corporation). • 11. Zymography gel electrophoresis assay (Novorex Corp).
Confluent culture of SMC and suspended from culture flask by trypsinization and washed with phosphate-buffered saline (PBS) from serum-containing medium. Cell concentration in suspension was brought to 500,000 cell per mL in serum-free DMEM. Cell suspension was then mixed 1:1 with ice-cold 2 mg/ml collagen type I solution in PBS. Final concentration of collagen was 1 mg/mL, final cell concentration is 250,000 per mL. Collagen-SMC suspension was distributed by 300 microL to the wells of 24 well plate in such a manner to cover the entire bottom surface of the well. The plate was then incubated for one hour at 37° C. to allow gel to polymerize. 0.5 mL of experimental serum-free medium containing no additions (control), […] was added to polymerized gel, plate was then gently tapped on the side to detach gel from the bottom of plastic well, and plate was then placed to incubator with the controlled atmosphere containing 5%CO2 at 37° C. for incubation. After 24 hour incubation plate was taken from the incubator and plate image with floating gels was taken using digital camera. Gel flat surface area is measured with digital image analyzing software. Sample of cell culture media was taken for analysis of matrix metalloproteinases activity by zymography (Novorex Corp). Experiments were performed in triplicates and results are presented as a mean +/−SD.

[2] = system: cultured human aortic smooth muscle cells (SMC); assay: SMC collagen gel contraction stimulated by Thrombin; details: for GA, % vs 100% control: 30 mcM, Thrombin alone 70%
[3] = system: cultured human aortic smooth muscle cells (SMC); assay: SMC collagen gel contraction stimulated by Angiotensin I; details: Mar. 25, 2003; ATI 330-1000 nM alone
[4] = Mar. 25, 2003, in combination with EF

## Oc1cc(O)c2c(c1)O[C@H](c1ccc(O)c(O)c1)[C@H](O)C2 [EC]
[1]; Apr. 17, 2003
  rank of effectiveness on ATII-induced gel contraction (catechins): EC=C

## C[C@@H]1O[C@@H](OC[C@H]2O[C@@H](Oc3c(-c4ccc(O)c(O)c4)oc4cc(O)cc(O)c4c3=O)[C@H](O)[C@@H](O)[C@@H]2O)[C@H](O)[C@H](O)[C@H]1O [Rutin]
[1]; Apr. 2, 2003
  GA, % vs 100% control: 80%
[2]; Apr. 2, 2003
  GA, % vs 100% control: 56%

## Thrombin [reference compound]
[2]; Apr. 2, 2003, Thrombin alone at 1 mcM
  GA reduced by: 30%
[2]; Mar. 7, 2003, Thrombin 0.1 U/mL alone
  effect on gel contraction: no effects
[2]; Mar. 10, 2003, Thrombin 0.1 U/mL alone, 9% in control
  gel reduced by: 58%

## NCCCC[C@H](N)C(=O)O [Lysine]
[1]; Mar. 28, 2003, 0.25-1 mM
  effect on ATII GA reduction: did not effect

## CC(=O)N[C@@H](CS)C(=O)O [NAC, N-Acetyl Cystein]
[1]; Mar. 26, 2003, NAC 2 mcM, ATII 1 mcM (21% reduction)
  GA returned to % of control: 100%
[1]; Mar. 26, 2003, NAC higher concentration up to 60 mcM
  effect on ATII GA reduction: did not have any effect

## O=C1O[C@H]([C@@H](O)CO)C(O)=C1O [AsA, ascorbic acid]
[1]; 1 micromol/L Ang II, 24 hours
  activity as inhibitor of Ang II-stimulated gel contraction: not significantly active
[1]; Apr. 2, 2003, AsA 200 mcM
  effect on ATII GA reduction: had no effect
[1]; Apr. 17, 2003, AsA 500 mcM alone
  effect on ATII-induced gel reduction: did not have effect
[1]; Apr. 17, 2003, AsA 500 mcM in combination with 10 EGCG
  effect on ATII-induced gel reduction: did not have effect
[1]; Mar. 18, 2003, ATII 1 mcM + AsA 100 mcM
  gel reduction to % of 100% control: 30%
[1]; Mar. 20, 2003, AsA 0.5 mM + ATII
  gel reduction to % vs 100% ATII 1 mcM: 90%
[2]; Apr. 2, 2003, AsA 200 mcM
  effect on Thrombin GA reduction: had no effect

## [Mg+2] [Mg]
[1]; Mar. 20, 2003
  effect on ATII-induced gel: no effects

## O=C(O[C@@H]1Cc2c(O)cc(O)cc2O[C@@H]1c1cc(O)c(O)c(O)c1)c1cc(O)c(O)c(O)c1 [EGCG, Epigallocatechin gallate]
[1]; 1 micromol/L Ang II, 24 hours
  activity as inhibitor of Ang II-stimulated gel contraction: most active inhibitors of gel contraction
[1]; 30 micromol/L, 1 micromol/L Ang II, 24 hours
  inhibition of Ang II-induced gel contraction: 97%
[1]; Apr. 2, 2003
  GA, % vs 100% control: 150%
[1]; Apr. 17, 2003, EGCG 3.3-10-30 mcM
  effect on gel contraction by ATII: dose-dependently reduced gel contraction
[1]; Apr. 17, 2003
  rank of effectiveness on ATII-induced gel contraction (catechins): more effective than ECG30
[1]; Mar. 18, 2003, ATII 1 mcM + EGCG 15 mcM
  gel reduction to % of 100% control: 30%
[2]; Apr. 2, 2003
  GA, % vs 100% control: 206%

## Angiotensin I (DRVYIHPFHL; Angiotensin-1; UniProt P01019 25-34, looked up) [ATI, stimulus of gel contraction]
[3]
  gel reduction: gel reduction at 1000 nM only

## Oc1cc(O)c2c(c1)OC(c1ccc(O)c(O)c1)C(O)C2 (stereo not drawn) [C]
[1]; Apr. 17, 2003
  rank of effectiveness on ATII-induced gel contraction (catechins): EC=C

## Angiotensin II (DRVYIHPF; Angiotensin-2; UniProt P01019 25-32, looked up) [ATII, stimulus of gel contraction, reference compound]
[1]; Apr. 2, 2003, ATII alone at 1 mcM
  GA reduced by: 24%
[1]; Mar. 7, 2003, ATII 1 mcM alone
  effect on gel contraction: no effects
[1]; Mar. 11, 2003, ATII 1 mcM alone
  gel reduction to % of Control 100%: 59%
[1]; Mar. 18, 2003, ATII 1 mcM alone
  gel reduction to % of 100% control: 23%
[1]; Mar. 20, 2003, ATII 1 mcM alone
  gel reduction to % of 100% control: 81%
[1]; Mar. 25, 2003, ATII 110-330-1000 nM alone
  reduction in gel: dose dependent reduction in gel
[1]; Mar. 26, 2003, ATII 1 mcM alone
  GA reduction: 21%

## O=c1c(O)c(-c2ccc(O)c(O)c2)oc2cc(O)cc(O)c12 [Quercetin]
[1]; 1 micromol/L Ang II, 24 hours
  activity as inhibitor of Ang II-stimulated gel contraction: most active inhibitors of gel contraction
[1]; Apr. 2, 2003
  GA, % vs 100% control: 167%
[1]; Apr. 17, 2003
  rank of effectiveness on ATII (polyphenols): Querc30=>Genist30=>Resver30=>Rutin30
[1]; Homo sapiens, 30 micromol/L, 1 micromol/L Ang II, 24 hours, read-out: inhibition of Ang II-induced gel contraction
  inhibition at 30 µM: 120%
[2]; Apr. 2, 2003
  GA, % vs 100% control: 133%

## O=c1c(-c2ccc(O)cc2)coc2cc(O)cc(O)c12 [Genistein]
[1]; Apr. 2, 2003
  GA, % vs 100% control: 96%
[1]; Apr. 17, 2003
  rank of effectiveness on ATII (polyphenols): Querc30=>Genist30=>Resver30=>Rutin30
[1]; Mar. 25, 2003, alone
  increase in gel area (GA) vs ATII: 34%
[1]; [4]
  increase in gel area (GA) vs ATII: 11%
[2]; Apr. 2, 2003
  GA, % vs 100% control: 78%

## N=C(N)NCCC[C@H](N)C(=O)O [Arginine]
[1]; Mar. 20, 2003, Arginine 0.5-2 mM
  effect on ATII-induced gel reduction: no significant effect

## Oc1ccc(C=Cc2cc(O)cc(O)c2)cc1 [Resveratrol]
[1]; Apr. 2, 2003
  GA, % vs 100% control: 88%
[1]; Apr. 17, 2003
  rank of effectiveness on ATII (polyphenols): Querc30=>Genist30=>Resver30=>Rutin30
[1]; Mar. 25, 2003, 15 mcM, alone
  effect on gel area vs ATII: no effect
[1]; Mar. 25, 2003, 15 mcM, with EF
  effect on EF effect: no effect
[1]; Mar. 25, 2003, alone
  increase in gel area (GA) vs ATII: 45%
[1]; [4]
  increase in gel area (GA) vs ATII: 104%
[2]; Apr. 2, 2003
  GA, % vs 100% control: 106%

## [Ca+2] [Ca]
[1]; Mar. 20, 2003
  effect on ATII-induced gel: no effects

## O=C(O[C@@H]1Cc2c(O)cc(O)cc2O[C@@H]1c1ccc(O)c(O)c1)c1cc(O)c(O)c(O)c1 [ECG]
[1]; Apr. 17, 2003
  rank of effectiveness on ATII-induced gel contraction (catechins): more effective than EC=C

## O=C(O)[C@@H]1CCCN1 [Proline]
[1]; Mar. 28, 2003, 0.25-1 mM
  effect on ATII GA reduction: did not effect
